Experimental findings from PMC6934184, “Selective DNA-PKcs inhibition extends the therapeutic index of localized radiotherapy and chemotherapy” (The Journal of Clinical Investigation, 2019) are described below.

In this assay the target is T1, LRRK2 G2019S (Homo sapiens, UniProt Q5S007, G2019S).
T1 construct: purchased Thermo Fisher Scientific (Life Technologies) SelectScreen
Nature of the assay: SelectScreen Adapta. The class given is biochemical. The essentials: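 SelectScreen broad panel; activity (Z'LYTE, Adapta) plus binding formats. ATP: Km app for CSF1R Z'LYTE; 10 for CAMK1 Adapta. Readout = % per kinase.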

T1 sequence (Q5S007 whole entry G2019S): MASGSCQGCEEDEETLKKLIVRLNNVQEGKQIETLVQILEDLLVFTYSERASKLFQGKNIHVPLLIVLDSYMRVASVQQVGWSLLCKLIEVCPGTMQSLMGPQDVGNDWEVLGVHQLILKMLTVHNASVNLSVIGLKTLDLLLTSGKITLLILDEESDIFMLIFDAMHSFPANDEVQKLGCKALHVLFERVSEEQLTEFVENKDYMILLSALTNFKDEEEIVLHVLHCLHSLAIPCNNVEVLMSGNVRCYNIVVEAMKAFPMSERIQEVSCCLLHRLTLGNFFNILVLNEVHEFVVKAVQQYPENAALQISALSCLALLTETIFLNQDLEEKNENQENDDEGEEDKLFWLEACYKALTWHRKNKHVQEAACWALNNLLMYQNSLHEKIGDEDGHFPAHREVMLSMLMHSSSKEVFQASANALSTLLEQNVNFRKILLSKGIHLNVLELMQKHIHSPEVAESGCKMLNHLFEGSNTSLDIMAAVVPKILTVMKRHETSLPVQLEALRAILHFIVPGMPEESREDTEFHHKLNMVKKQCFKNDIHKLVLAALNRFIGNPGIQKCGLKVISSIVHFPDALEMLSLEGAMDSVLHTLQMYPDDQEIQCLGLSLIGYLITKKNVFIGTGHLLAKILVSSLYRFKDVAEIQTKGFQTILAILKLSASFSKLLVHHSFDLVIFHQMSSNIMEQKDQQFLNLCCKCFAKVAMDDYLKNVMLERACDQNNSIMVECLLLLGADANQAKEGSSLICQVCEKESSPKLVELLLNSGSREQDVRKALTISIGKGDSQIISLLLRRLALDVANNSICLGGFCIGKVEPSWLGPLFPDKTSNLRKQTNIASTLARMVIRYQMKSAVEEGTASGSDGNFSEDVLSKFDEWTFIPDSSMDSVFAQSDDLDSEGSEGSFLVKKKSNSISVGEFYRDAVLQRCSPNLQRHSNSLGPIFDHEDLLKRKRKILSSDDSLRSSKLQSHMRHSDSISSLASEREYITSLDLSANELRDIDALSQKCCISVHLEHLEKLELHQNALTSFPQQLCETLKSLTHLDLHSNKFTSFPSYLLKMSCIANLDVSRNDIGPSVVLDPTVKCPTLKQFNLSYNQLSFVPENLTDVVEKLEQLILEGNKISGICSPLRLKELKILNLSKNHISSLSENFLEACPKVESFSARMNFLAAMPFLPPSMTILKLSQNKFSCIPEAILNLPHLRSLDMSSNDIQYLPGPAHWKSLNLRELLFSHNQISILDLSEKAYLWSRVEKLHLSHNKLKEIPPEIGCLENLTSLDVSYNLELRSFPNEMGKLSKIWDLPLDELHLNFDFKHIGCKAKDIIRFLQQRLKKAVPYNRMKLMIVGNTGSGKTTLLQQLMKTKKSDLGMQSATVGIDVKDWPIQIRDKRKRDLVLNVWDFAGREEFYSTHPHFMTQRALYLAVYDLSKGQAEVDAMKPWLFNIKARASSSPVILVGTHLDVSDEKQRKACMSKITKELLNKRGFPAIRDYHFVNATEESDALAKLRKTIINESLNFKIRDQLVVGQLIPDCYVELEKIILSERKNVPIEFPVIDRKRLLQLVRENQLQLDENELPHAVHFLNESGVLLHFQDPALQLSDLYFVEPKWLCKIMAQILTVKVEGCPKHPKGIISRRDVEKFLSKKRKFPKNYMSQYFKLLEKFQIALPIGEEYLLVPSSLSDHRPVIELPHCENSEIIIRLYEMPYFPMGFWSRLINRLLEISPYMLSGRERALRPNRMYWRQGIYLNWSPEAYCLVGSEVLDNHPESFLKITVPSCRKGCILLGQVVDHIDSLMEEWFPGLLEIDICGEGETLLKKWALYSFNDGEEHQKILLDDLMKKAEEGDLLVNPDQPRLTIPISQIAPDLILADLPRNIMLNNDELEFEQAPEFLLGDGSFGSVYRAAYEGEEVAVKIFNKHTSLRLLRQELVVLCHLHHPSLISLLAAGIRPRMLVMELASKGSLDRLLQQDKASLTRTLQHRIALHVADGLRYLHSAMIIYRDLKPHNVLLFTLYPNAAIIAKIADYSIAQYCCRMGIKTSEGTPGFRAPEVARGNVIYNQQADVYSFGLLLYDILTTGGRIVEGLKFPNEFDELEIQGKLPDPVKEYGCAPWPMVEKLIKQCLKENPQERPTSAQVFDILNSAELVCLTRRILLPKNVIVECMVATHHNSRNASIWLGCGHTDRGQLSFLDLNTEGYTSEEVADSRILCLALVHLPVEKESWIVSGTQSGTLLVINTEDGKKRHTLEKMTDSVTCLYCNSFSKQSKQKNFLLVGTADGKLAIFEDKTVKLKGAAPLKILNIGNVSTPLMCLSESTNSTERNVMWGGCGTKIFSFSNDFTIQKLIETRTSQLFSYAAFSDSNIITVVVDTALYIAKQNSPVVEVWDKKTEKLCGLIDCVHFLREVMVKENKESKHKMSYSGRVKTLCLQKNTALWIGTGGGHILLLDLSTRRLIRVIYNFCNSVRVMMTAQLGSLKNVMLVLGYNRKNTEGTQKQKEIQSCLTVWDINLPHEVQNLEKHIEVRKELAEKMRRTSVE

`CN(C(=O)CN1CCOCC1)c1ccc2sc3c(-c4cccc5c(=O)cc(N6CC7CCC(C6)O7)oc45)cccc3c2c1` [NU5455] returned an inhibition at 1 µM of 3%.

Broadly, the inhibition is the percentage by which the read-out fell short of the control.
